Test results as given in article PMC11941790, “Reactions of Plasmodium falciparum Type II NADH: Ubiquinone Oxidoreductase with Nonphysiological Quinoidal and Nitroaromatic Oxidants” (International Journal of Molecular Sciences, 2025).

Columns and labels:
[1] = target: T1, type II NADH:ubiquinone oxidoreductase (PfNDH2) (Plasmodium falciparum, UniProt Q8I302); experiment: steady-state kinetics, competitive inhibition vs NADH; format: biochemical
T1 construct: gene PF3D7_0915000; His-tagged PfNDH2 (pET45, E. coli)
T1 sequence (Q8I302 31-533): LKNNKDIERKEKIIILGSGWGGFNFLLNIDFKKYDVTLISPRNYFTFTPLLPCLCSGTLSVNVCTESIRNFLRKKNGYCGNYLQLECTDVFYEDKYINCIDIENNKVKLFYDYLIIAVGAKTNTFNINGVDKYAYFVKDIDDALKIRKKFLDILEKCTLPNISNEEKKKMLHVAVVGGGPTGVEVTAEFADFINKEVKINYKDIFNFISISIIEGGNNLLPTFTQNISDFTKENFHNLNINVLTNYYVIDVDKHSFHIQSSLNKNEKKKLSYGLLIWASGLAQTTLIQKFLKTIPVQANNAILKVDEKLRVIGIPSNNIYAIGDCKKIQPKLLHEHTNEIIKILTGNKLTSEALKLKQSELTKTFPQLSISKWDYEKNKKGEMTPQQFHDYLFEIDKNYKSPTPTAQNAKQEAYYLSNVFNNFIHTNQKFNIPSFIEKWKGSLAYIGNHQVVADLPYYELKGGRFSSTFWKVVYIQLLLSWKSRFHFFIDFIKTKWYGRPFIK

[2] = target: T1, type II NADH:ubiquinone oxidoreductase (PfNDH2); experiment: steady-state kinetics, competitive product inhibition vs NADH with naphthazarin as acceptor; format: biochemical

Compound | Ki [1] | Ki [2]
Nc1ncnc2c1ncn2[C@@H]1O[C@H](COP(=O)(O)OP(=O)(O)OC[C@H]2OC(O)[C@H](O)[C@@H]2O)[C@@H](O)[C@H]1O (some centres unmarked) [ADP-ribose] | 2.5 ± 0.3 mM | –
NC(=O)c1ccc[n+]([C@@H]2O[C@H](COP(=O)([O-])OP(=O)(O)OC[C@H]3O[C@@H](n4cnc5c(N)ncnc54)[C@H](O)[C@@H]3O)[C@@H](O)[C@H]2O)c1 [NAD^+] | – | 3.7 ± 0.4 mM
